Source: the supplement of paper PMC10307832

Experiments:
Assay in all cases: relative viability (nuclei count vs DMSO), 5 days (fraction); higher = more cells survive
Alpelisib + Dasatinib = compound: Cc1nc(NC(=O)N2CCC[C@H]2C(N)=O)sc1-c1ccnc(C(C)(C)C(F)(F)F)c1 [Alpelisib] + Cc1nc(Nc2ncc(C(=O)Nc3c(C)cccc3Cl)s2)cc(N2CCN(CCO)CC2)n1 [Dasatinib] (partner 0.075 µM)
In short: (§1)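 Relative viability is defined as nuclei in treated wells over nuclei in vehicle wells. Duplicate plates were run and medians reported. Lung cancer cell lines in 1536-well plates were dosed by pin tool one day after seeding, with one drug or with a fixed anchor-drug dose plus five library-drug doses (not always all listed) in √10 steps, and nuclei were counted after 5 days.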

Vemurafenib + Trametinib = compound: CCCS(=O)(=O)Nc1ccc(F)c(C(=O)c2c[nH]c3ncc(-c4ccc(Cl)cc4)cc23)c1F [Vemurafenib] + CC(=O)Nc1cccc(-n2c(=O)n(C3CC3)c(=O)c3c(Nc4ccc(I)cc4F)n(C)c(=O)c(C)c32)c1 [Trametinib] (partner 0.02 µM)
In short: as §1

OSI-027 + Trametinib = compound: COc1cccc2cc(-c3nc([C@H]4CC[C@H](C(=O)O)CC4)n4ncnc(N)c34)[nH]c12 [OSI-027] + CC(=O)Nc1cccc(-n2c(=O)n(C3CC3)c(=O)c3c(Nc4ccc(I)cc4F)n(C)c(=O)c(C)c32)c1 [Trametinib] (partner 0.02 µM)
In short: as §1

Alpelisib + Bortezomib = compound: Cc1nc(NC(=O)N2CCC[C@H]2C(N)=O)sc1-c1ccnc(C(C)(C)C(F)(F)F)c1 [Alpelisib] + CC(C)C[C@H](NC(=O)[C@H](Cc1ccccc1)NC(=O)c1cnccn1)B(O)O [Bortezomib] (partner 0.002 µM)
In short: as §1

Cell Line: UMC-11
- relative viability (Alpelisib + Dasatinib; first compound 0.04 µM): 0.426
- relative viability (Alpelisib + Dasatinib; first compound 0.1265 µM): 0.501
- relative viability (Alpelisib + Dasatinib; first compound 0.4 µM): 0.537
- relative viability (Alpelisib + Dasatinib; first compound 1.265 µM): 0.455
- relative viability (Alpelisib + Dasatinib; first compound 4 µM): 0.473
- relative viability (Vemurafenib + Trametinib; first compound 0.03162 µM): 0.657
- relative viability (Vemurafenib + Trametinib; first compound 0.1 µM): 0.756
- relative viability (Vemurafenib + Trametinib; first compound 0.3162 µM): 0.475
- relative viability (Vemurafenib + Trametinib; first compound 1 µM): 0.355
- relative viability (OSI-027 + Trametinib; first compound 0.01 µM): 0.727
- relative viability (OSI-027 + Trametinib; first compound 0.03162 µM): 0.772
- relative viability (OSI-027 + Trametinib; first compound 0.1 µM): 0.579
- relative viability (OSI-027 + Trametinib; first compound 0.3162 µM): 0.472
- relative viability (OSI-027 + Trametinib; first compound 1 µM): 0.392
- relative viability (Alpelisib + Bortezomib; first compound 0.04 µM): 0.677
- relative viability (Alpelisib + Bortezomib; first compound 0.1265 µM): 0.981
- relative viability (Alpelisib + Bortezomib; first compound 0.4 µM): 0.672
- relative viability (Alpelisib + Bortezomib; first compound 1.265 µM): 0.734
- relative viability (Alpelisib + Bortezomib; first compound 4 µM): 0.465
